{
  "source": "PubChem BioAssay AID1259407",
  "about": "(Chemical Carcinogenesis Research Information System (CCRIS), 2018)",
  "system": "CCRIS mutagenicity, Ames/micronucleus/aberration tests",
  "test": "CCRIS mutagenicity studies",
  "key": {"[1]": {"settings": "Test System: AMES SALMONELLA TYPHIMURIUM, Strain/Indicator: TA98, Metabolic Activation: NONE, Method: STANDARD PLATE"}, "[2]": {"settings": "Test System: AMES SALMONELLA TYPHIMURIUM, Strain/Indicator: TA100, Metabolic Activation: NONE, Method: STANDARD PLATE"}, "[3]": {"settings": "Test System: AMES SALMONELLA TYPHIMURIUM, Strain/Indicator: TA1538, Metabolic Activation: NONE, Method: STANDARD PLATE"}, "[4]": {"settings": "Test System: AMES SALMONELLA TYPHIMURIUM, Strain/Indicator: TA98, Metabolic Activation: NONE, Method: PREINCUBATION"}, "[5]": {"settings": "Test System: AMES SALMONELLA TYPHIMURIUM, Strain/Indicator: TA100, Metabolic Activation: NONE, Method: PREINCUBATION"}},
  "note": "Activity calls are given as the source filed them. How the calls were made is not given here.",
  "data": [
    {"smiles": "Nc1n[nH]c(=S)s1", "values": [
      {"measurement": "mutagenic call", "setting": "Test System: AMES SALMONELLA TYPHIMURIUM, Strain/Indicator: TA98, Metabolic Activation: HAMSTER, LIVER, S-9, AROCLOR 1254, Method: STANDARD PLATE", "result": "inactive; negative"},
      {"measurement": "mutagenic call", "setting": "[1]", "result": "inactive; negative"},
      {"measurement": "mutagenic call", "setting": "Test System: AMES SALMONELLA TYPHIMURIUM, Strain/Indicator: TA98, Metabolic Activation: RAT, LIVER, S-9, AROCLOR 1254, Method: STANDARD PLATE", "result": "inactive; negative"},
      {"measurement": "mutagenic call", "setting": "Test System: AMES SALMONELLA TYPHIMURIUM, Strain/Indicator: TA100, Metabolic Activation: HAMSTER, LIVER, S-9, AROCLOR 1254, Method: STANDARD PLATE", "result": "inactive; negative"},
      {"measurement": "mutagenic call", "setting": "[2]", "result": "inactive; negative"},
      {"measurement": "mutagenic call", "setting": "Test System: AMES SALMONELLA TYPHIMURIUM, Strain/Indicator: TA100, Metabolic Activation: RAT, LIVER, S-9, AROCLOR 1254, Method: STANDARD PLATE", "result": "inactive; negative"},
      {"measurement": "mutagenic call", "setting": "Test System: AMES SALMONELLA TYPHIMURIUM, Strain/Indicator: TA1535, Metabolic Activation: HAMSTER, LIVER, S-9, AROCLOR 1254, Method: STANDARD PLATE", "result": "inactive; negative"},
      {"measurement": "mutagenic call", "setting": "Test System: AMES SALMONELLA TYPHIMURIUM, Strain/Indicator: TA1535, Metabolic Activation: NONE, Method: STANDARD PLATE", "result": "inactive; negative"},
      {"measurement": "mutagenic call", "setting": "Test System: AMES SALMONELLA TYPHIMURIUM, Strain/Indicator: TA1535, Metabolic Activation: RAT, LIVER, S-9, AROCLOR 1254, Method: STANDARD PLATE", "result": "inactive; negative"},
      {"measurement": "mutagenic call", "setting": "Test System: AMES SALMONELLA TYPHIMURIUM, Strain/Indicator: TA1537, Metabolic Activation: HAMSTER, LIVER, S-9, AROCLOR 1254, Method: STANDARD PLATE", "result": "inactive; negative"},
      {"measurement": "mutagenic call", "setting": "Test System: AMES SALMONELLA TYPHIMURIUM, Strain/Indicator: TA1537, Metabolic Activation: NONE, Method: STANDARD PLATE", "result": "inactive; negative"},
      {"measurement": "mutagenic call", "setting": "Test System: AMES SALMONELLA TYPHIMURIUM, Strain/Indicator: TA1537, Metabolic Activation: RAT, LIVER, S-9, AROCLOR 1254, Method: STANDARD PLATE", "result": "inactive; negative"},
      {"measurement": "mutagenic call", "setting": "Test System: AMES SALMONELLA TYPHIMURIUM, Strain/Indicator: TA1538, Metabolic Activation: HAMSTER, LIVER, S-9, AROCLOR 1254, Method: STANDARD PLATE", "result": "inactive; negative"},
      {"measurement": "mutagenic call", "setting": "[3]", "result": "inactive; negative"},
      {"measurement": "mutagenic call", "setting": "Test System: AMES SALMONELLA TYPHIMURIUM, Strain/Indicator: TA1538, Metabolic Activation: RAT, LIVER, S-9, AROCLOR 1254, Method: STANDARD PLATE", "result": "inactive; negative"},
      {"measurement": "mutagenic call", "setting": "Test System: MOUSE LYMPHOMA, Strain/Indicator: L5178Y (TK+/TK-), Metabolic Activation: NONE, Method: SUSPENSION/PLATE", "result": "active; positive. reevaluation of results: positive"},
      {"measurement": "mutagenic call", "setting": "Test System: Mouse lymphoma, Strain/Indicator: L5178Y (tk+/tk-), Metabolic Activation: Rat, Liver, S-9, Aroclor 1254, Method: Suspension/plate", "result": "inactive; negative"}
    ]},
    {"smiles": "[Cl][Sb]([Cl])[Cl]", "values": [
      {"measurement": "mutagenic call", "setting": "[4]", "result": "inactive; negative"},
      {"measurement": "mutagenic call", "setting": "Test System: AMES SALMONELLA TYPHIMURIUM, Strain/Indicator: TA98, Metabolic Activation: RAT, LIVER, S-9 (10%), Method: PREINCUBATION", "result": "inactive; negative"},
      {"measurement": "mutagenic call", "setting": "[5]", "result": "inactive; negative"},
      {"measurement": "mutagenic call", "setting": "Test System: AMES SALMONELLA TYPHIMURIUM, Strain/Indicator: TA100, Metabolic Activation: RAT, LIVER, S-9 (10%), Method: PREINCUBATION", "result": "inactive; negative"}
    ]},
    {"smiles": "OC(c1ccc(Cl)cc1)(c1ccc(Cl)cc1)C(Cl)(Cl)Cl", "values": [
      {"measurement": "mutagenic call", "setting": "End Point: IN VITRO CHROMOSOMAL ABERRATIONS, Test System: CHINESE HAMSTER OVARY CELLS, Metabolic Activation: NONE", "result": "inactive; negative"},
      {"measurement": "mutagenic call", "setting": "End Point: IN VITRO CHROMOSOMAL ABERRATIONS, Test System: CHINESE HAMSTER OVARY CELLS, Metabolic Activation: RAT, LIVER, S-9, AROCLOR 1254", "result": "inactive; negative"},
      {"measurement": "mutagenic call", "setting": "End Point: IN VIVO MICRONUCLEUS, Test System: BONE MARROW POLYCHROMATIC ERYTHROCYTES, Species: MOUSE, Strain/Sex: SWISS/MALE, FEMALE, Route: IP 2X IN AQUEOUS SUSPENSION WITHIN 24 HR", "result": "inactive; negative"}
    ]},
    {"smiles": "CCOc1ccccc1[N+](=O)[O-]", "values": [
      {"measurement": "mutagenic call", "setting": "[4]", "result": "inactive; negative"},
      {"measurement": "mutagenic call", "setting": "[5]", "result": "active; positive"},
      {"measurement": "mutagenic call", "setting": "Test System: AMES SALMONELLA TYPHIMURIUM, Strain/Indicator: TA1535, Metabolic Activation: NONE, Method: PREINCUBATION", "result": "active; positive"},
      {"measurement": "mutagenic call", "setting": "Test System: AMES SALMONELLA TYPHIMURIUM, Strain/Indicator: TA1537, Metabolic Activation: NONE, Method: PREINCUBATION", "result": "inactive; negative"},
      {"measurement": "mutagenic call", "setting": "Test System: AMES SALMONELLA TYPHIMURIUM, Strain/Indicator: TA1538, Metabolic Activation: NONE, Method: PREINCUBATION", "result": "inactive; negative"}
    ]},
    {"smiles": "CC(=O)[C@]1(O)Cc2c(O)c3c(c(O)c2[C@@H](O[C@H]2C[C@H](N)[C@H](O)[C@H](C)O2)C1)C(=O)c1ccccc1C3=O", "values": [
      {"measurement": "mutagenic call", "setting": "Test System: AMES SALMONELLA TYPHIMURIUM, Strain/Indicator: GW257, Metabolic Activation: NONE, Method: STANDARD PLATE", "result": "active; positive"},
      {"measurement": "mutagenic call", "setting": "[1]", "result": "active; positive"},
      {"measurement": "mutagenic call", "setting": "[2]", "result": "active; positive"},
      {"measurement": "mutagenic call", "setting": "[3]", "result": "active; positive"},
      {"measurement": "mutagenic call", "setting": "Test System: CHINESE HAMSTER V-79, Strain/Indicator: V-79/6-THIOGUANINE, Metabolic Activation: NONE, Method: SUSPENSION/PLATE", "result": "active; positive"},
      {"measurement": "mutagenic call", "setting": "Test System: UDS RAT HEPATOCYTES, Strain/Indicator: THY INCORP, Metabolic Activation: NONE, Method: AUTOMATIC COLONY COUNTER", "result": "active; positive"}
    ]},
    {"smiles": "Cc1ccc2[nH]c3c(C)ccc(C)c3c2c1", "values": [
      {"measurement": "mutagenic call", "setting": "[1]", "result": "inactive; negative"},
      {"measurement": "mutagenic call", "setting": "Test System: AMES SALMONELLA TYPHIMURIUM, Strain/Indicator: TA98, Metabolic Activation: RAT LIVER S-9, AROCLOR 1254, Method: STANDARD PLATE", "result": "active; positive"},
      {"measurement": "mutagenic call", "setting": "[2]", "result": "inactive; negative"},
      {"measurement": "mutagenic call", "setting": "Test System: AMES SALMONELLA TYPHIMURIUM, Strain/Indicator: TA100, Metabolic Activation: RAT LIVER S-9, AROCLOR 1254, Method: STANDARD PLATE", "result": "inactive; negative"}
    ]},
    {"smiles": "COc1cc(Cc2cnc(N)nc2N)cc(OC)c1OC", "values": [
      {"measurement": "mutagenic call", "setting": "Test System: AMES SALMONELLA TYPHIMURIUM, Strain/Indicator: TA97A, Metabolic Activation: NONE, Method: STANDARD PLATE", "result": "inactive; negative"},
      {"measurement": "mutagenic call", "setting": "Test System: AMES SALMONELLA TYPHIMURIUM, Strain/Indicator: TA97A, Metabolic Activation: RAT, LIVER, S-9, PHENOBARBITAL, Method: STANDARD PLATE", "result": "inactive; negative"},
      {"measurement": "mutagenic call", "setting": "[1]", "result": "active; positive"},
      {"measurement": "mutagenic call", "setting": "Test System: AMES SALMONELLA TYPHIMURIUM, Strain/Indicator: TA98, Metabolic Activation: RAT, LIVER, S-9, PHENOBARBITAL, Method: STANDARD PLATE", "result": "active; positive"},
      {"measurement": "mutagenic call", "setting": "[2]", "result": "inactive; negative"},
      {"measurement": "mutagenic call", "setting": "Test System: AMES SALMONELLA TYPHIMURIUM, Strain/Indicator: TA100, Metabolic Activation: RAT, LIVER, S-9, PHENOBARBITAL, Method: STANDARD PLATE", "result": "inactive; negative"},
      {"measurement": "mutagenic call", "setting": "Test System: AMES SALMONELLA TYPHIMURIUM, Strain/Indicator: TA102, Metabolic Activation: NONE, Method: STANDARD PLATE", "result": "inactive; negative"},
      {"measurement": "mutagenic call", "setting": "Test System: AMES SALMONELLA TYPHIMURIUM, Strain/Indicator: TA102, Metabolic Activation: RAT, LIVER, S-9, PHENOBARBITAL, Method: STANDARD PLATE", "result": "inactive; negative"},
      {"measurement": "mutagenic call", "setting": "[3]", "result": "active; positive"},
      {"measurement": "mutagenic call", "setting": "Test System: AMES SALMONELLA TYPHIMURIUM, Strain/Indicator: TA1538, Metabolic Activation: RAT, LIVER, S-9, PHENOBARBITAL, Method: STANDARD PLATE", "result": "active; positive"},
      {"measurement": "mutagenic call", "setting": "Test System: E.COLI, Strain/Indicator: WP2UVRA/PKM101, Metabolic Activation: NONE, Method: PREINCUBATION", "result": "inactive; negative"},
      {"measurement": "mutagenic call", "setting": "Test System: E.COLI, Strain/Indicator: WP2UVRA/PKM101, Metabolic Activation: RAT LIVER S-9, PHENOBARBITAL AND 5,6-BENZOFLAVONE, Method: PREINCUBATION", "result": "inactive; negative"}
    ]}
  ]
}
